# Test results: patent US9730889B2, “Steroid-sparing effects of beta-adrenergic inverse agonists and uses thereof” (University of Houston System, priority 2011, dated 2017)
# Like-named read-outs stand apart in the source and are kept apart here.
# How the values were obtained:
# BAL eosinophils = test: BAL eosinophil numbers in OVA sensitized and challenged mice; format: in vivo, BALB/c mice
# Text: (§1) Six-week to eight-week-old BALB/c mice (Jackson Animal Laboratory, Bar Harbor, Me.) were housed under specific pathogen-free conditions.
# (§2) Mice were immunized against allergen by means of sensitization (once weekly intraperitoneal injection on days 0, 7, and 14) and challenge (once daily intranasal instillation for 5 days on days 41-45) with ovalbumin (OVA) as described (FIG. 1) (19).
# (§3) Untreated sensitized and challenged mice or mice that had not undergone the sensitization and challenge process, received vehicle and were fed with normal mouse chow. […] Experimental mice were sacrificed on day 46.
# Brochoalveolar lavage (BAL) fluid was acquired via infusion and recovery of cold PBS (2×1 ml) through the tracheal cannula from euthanized (pentobarbital 0.1 ml of 65 mg/ml) mice. Brochoalveolar lavage total leukocyte count and differentiated cell counts were performed as described (19).
# Leukocytes and cytokines were measured in BAL fluid of OVA-sensitized mice 24 hours after the last of five daily nasal challenges with OVA (FIG. 1).
# [1] = system: mucin content in the airway epithelium; test: Airway epithelial mucin content (PAFS staining, mucin volume density) in OVA sensitized and challenged mice; format: in vivo, BALB/c mice; details: for reduction in mucin content: high dose: dexamethasone 4 mg/kg/day
# Text: as §1, §2, §3
# Lungs were perfused with 4% paraformaldehyde in PBS (pH 7.0) via a tracheal cannula at room temperature, then removed from the thoracic cavity and further fixed overnight at 4° C. (25). After overnight fixation, lungs were embedded in paraffin and then sectioned and stained with periodic acid fluorescent Schiff's (PAFS) reagent to examine intracellular mucin. Tissue sections were examined under a 40× objective and images (MagnaFire 2.1 Optronics) were acquired prior to any measurements and analyzed (ImagePro Plus) by blinded investigators (25).
# cytokines in BAL fluid = test: Cytokines in BAL fluid of OVA sensitized and challenged mice (multiplex ELISA); format: in vivo, BALB/c mice; details: Dex 4.0 mg/kg/day, Nad 250 ppm, 24 h after last OVA challenge
# Text: as §1, §2, §3
# The supernatants from brochoalveolar lavage samples, collected 24 hours after the last challenge with OVA, were provided to Pierce Searchlight, Aushon BioSystems, Inc. in blinded fashion. The concentrations of eotaxin, macrophage-derived chemokine (MDC), thymus and activation regulated chemokine (TARC), interleukin (IL)-1α, IL-5, IL-6, IL-12p70, IL-13, IL-17, IL-23, interferon (IFN), tumor necrosis factor alpha (TNF-a) and transforming growth factor beta (TGF-β1) were measured using multiplex enzyme-linked immunosorbent assay.
# Definition of abbreviations in Table 1 are Th1/2/17=T helper (1, 2, or 17) type inflammation; MDC=macrophage-derived chemokine; TARC=thymus and activation regulated chemokine; IL=interleukin-1a, IL-5, IL-6, IL-12p70, IL-13, IL-17, IL-23; IFNγ=interferon gamma; TNFα=tumor necrosis factor alpha; TGFβ1=transforming growth factor betal. The percentage from No Rx is in comparison to No OVA for each cytokine, while percentage of each drug treatment group [Dex (4.0 mg/kg/day); Nad (250 ppm); and Dex+Nad (0.4 mg/kg/day+25 ppm)] is in comparison to No Rx. Values are the means±SEM of data from 4 mice in each group (n=4); and *, indicate significant difference compared to No Rx, P<0.05.
# mucin content = details: previous study (19), cited from earlier work
# [2] = system: airway hyperresponsiveness; details: mild asthmatics, dose escalation protocol; cited from earlier work
# [3] = intermediate doses: dexamethasone 0.4 mg/kg/day IP 8 days, nadolol 25 ppm in chow 28 days, BAL 24 h after last OVA challenge
# [4] = low doses: dexamethasone 0.1 mg/kg/day IP 8 days, nadolol 5 ppm in chow 28 days, BAL 24 h after last OVA challenge
Structure (SMILES),reduction in eosinophils (BAL eosinophils; [3]) [%],reduction in eosinophils (BAL eosinophils; [4]) [%],reduction in mucin content ([1]; nadolol 250 ppm) [%],"IL-1a, percentage in comparison to No Rx (cytokines in BAL fluid)","IL-5, percentage in comparison to No Rx (cytokines in BAL fluid)","IL-6, percentage in comparison to No Rx (cytokines in BAL fluid)","IL-12p70, percentage in comparison to No Rx (cytokines in BAL fluid)","IL-13, percentage in comparison to No Rx (cytokines in BAL fluid)","IL-17, percentage in comparison to No Rx (cytokines in BAL fluid)","IL-23, percentage in comparison to No Rx (cytokines in BAL fluid)","MDC, percentage in comparison to No Rx (cytokines in BAL fluid)","TARC, percentage in comparison to No Rx (cytokines in BAL fluid)","TGFβ1, percentage in comparison to No Rx (cytokines in BAL fluid)","TNFa, percentage in comparison to No Rx (cytokines in BAL fluid)","eotaxin, percentage in comparison to No Rx (cytokines in BAL fluid)","IFNg level in BAL fluid (cytokines in BAL fluid; mean ± SEM, n=4) [pg/mL]","IL-1a level in BAL fluid (cytokines in BAL fluid; mean ± SEM, n=4) [pg/mL]","IL-5 level in BAL fluid (cytokines in BAL fluid; mean ± SEM, n=4) [pg/mL]","IL-6 level in BAL fluid (cytokines in BAL fluid; mean ± SEM, n=4) [pg/mL]","IL-12p70 level in BAL fluid (cytokines in BAL fluid; mean ± SEM, n=4) [pg/mL]",also measured
C[C@@H]1C[C@H]2[C@@H]3CCC4=CC(=O)C=C[C@]4(C)[C@@]3(F)[C@@H](O)C[C@]2(C)[C@@]1(O)C(=O)CO [dexamethasone],58,36,72,(233%)*,(30%)*,(163%),(180%),(27%)*,(0) %,(200%),(5%)*,(15%)*,(35%)*,(23%)*,(27%)*,90 ± 1.1,35 ± 7.1,63 ± 19.3,39 ± 28.2,9 ± 1.3,"reduction in eosinophils (BAL eosinophils; high-dose dexamethasone 4.0 mg/kg/day IP 8 days): 89%; IFNg, percentage in comparison to No Rx (cytokines in BAL fluid): (1500%); IL-13 level in BAL fluid (cytokines in BAL fluid; mean ± SEM, n=4): 12 ± 5.0 pg/mL; IL-17 level in BAL fluid (cytokines in BAL fluid; mean ± SEM, n=4): 2 ± 0.4 pg/mL; IL-23 level in BAL fluid (cytokines in BAL fluid; mean ± SEM, n=4): 74 ± 10.0 pg/mL; MDC level in BAL fluid (cytokines in BAL fluid; mean ± SEM, n=4): 10 ± 1.0 pg/mL; TARC level in BAL fluid (cytokines in BAL fluid; mean ± SEM, n=4): 475 ± 47.0 pg/mL; TGFβ1 level in BAL fluid (cytokines in BAL fluid; mean ± SEM, n=4): 4675 ± 792 pg/mL; TNFa level in BAL fluid (cytokines in BAL fluid; mean ± SEM, n=4): 14 ± 1.0 pg/mL; eotaxin level in BAL fluid (cytokines in BAL fluid; mean ± SEM, n=4): 12 ± 2.0 pg/mL"
CC(C)(C)NCC(O)COc1cccc2c1CC(O)C(O)C2 (stereo not shown) [nadolol],36,20,86,(73%),(56%)*,(88%),(140%),(13%)*,(50%),(76%),(27%)*,(19%)*,(45%)*,(53%)*,(80%),7 ± 1.1,11 ± 5.0,118 ± 33.0,21 ± 10.0,7 ± 1.0,"maximal reductions in airway eosinophilia from OVA S/C (BAL eosinophils; nadolol 250 ppm, detected at day 7 of treatment): ~50%; change in mucin content ([1]; all doses of chronic nadolol (5, 25, 250 ppm)): significant decreases; mucin volume density after 7 days of treatment vs vehicle treated control mice ([1]; nadolol 250 ppm, 7 days): significant reductions; day at which maximal effect on mucin volume density is achieved ([1]; nadolol 250 ppm, time course): 22 days; reduction in mucin content (mucin content; 7 days of treatment with nadolol): very modest reduction; reduction in mucin content (mucin content; 28 days of treatment with nadolol): ~90%; airway hyperresponsiveness [2]: reduction in airway hyperresponsiveness; IL-13 level in BAL fluid (cytokines in BAL fluid; mean ± SEM, n=4): 6 ± 2.0 pg/mL; IL-17 level in BAL fluid (cytokines in BAL fluid; mean ± SEM, n=4): 1 ± 0.2 pg/mL; IL-23 level in BAL fluid (cytokines in BAL fluid; mean ± SEM, n=4): 28 ± 4.3 pg/mL; TARC level in BAL fluid (cytokines in BAL fluid; mean ± SEM, n=4): 593 ± 223.5 pg/mL; TGFβ1 level in BAL fluid (cytokines in BAL fluid; mean ± SEM, n=4): 5891 ± 710 pg/mL; TNFa level in BAL fluid (cytokines in BAL fluid; mean ± SEM, n=4): 33 ± 8.0 pg/mL; eotaxin level in BAL fluid (cytokines in BAL fluid; mean ± SEM, n=4): 36 ± 6.0 pg/mL"
